Test results reported in patent US11590117B2, “Treatment of a hematologic malignancy with 2-(4-chlorophenyl)-n-((2-(2,6-dioxopiperidin-3-yl)-1-oxoisoindolin-5-yl)methyl)-2,2-difluoroacetamide” (priority 2016, dated 2023).
Like-named read-outs stand apart in the source and are kept apart here.

Tests used:
Test in all cases: IncuCyte live cell imaging of cell viability, Red-labeled cell line
Assay type in all cases: cell-based
MV4-11 = conditions: Homo sapiens, Red-labeled MV4-11, read-out: Inhibition of Cell Viability EC50
Experimental: (§1) Derivation of Red-labeled Acute Myeloid Leukemia Cell Lines: Twelve cell lines, including AML-193, HL-60, KG-1, ML-2, MOLM-13, MV-4-11, NOMO-1, OCI-AML2, OCI-AML3, SIG-M5, TF-1, and THP-1, were stably transduced with Red lentivirus. Cells were plated in 6-well plates in growth media, incubated with 8 µg/mL polybrene (EMD Millipore Cat no. TR-1003-G) followed by infection with CellPlayer™ NucLight™ Red-lentiviral particles (Essen Biosciences Cat no. 4478) at a multiplicity of infectivity (MOI) of 0.5 to 2.5 for 24 hours. MOI refers to the ratio of virus particles to cells. Virus-containing media was replaced with fresh growth media and incubated for an additional 24 to 48 hours, followed by selection with Zeocin (500 to 2000 μg/mL), a derivative of bleomycin (Life Technologies-Invitrogen Cat no. R250-01). Cells were selected with fresh Zeocin every 3 to 4 days for 3 to 8 weeks. Cells were periodically viewed using fluorescent microscopy for nuclear-restricted red fluorescence. Zeocin selection was terminated once the population was confirmed to stably fluoresce red. All Red-labeled cell lines were acclimated to EMEM containing 20% FBS, with or without GM-CSF supplementation, allowing for optimal live cell imaging.
(§2) Incubation of Cell Cultures with Compound 1: Compound 1 was provided for studies by Celgene chemistry group at a stock concentration of 30 mM in 20 μL dimethyl sulfoxide (DMSO) frozen. Costar 96-well cell culture plates (Corning Cat no. 3595) were coated with 100 μL of 10 µg/mL fibronectin (Sigma-Aldrich Cat no. F1141) for 4 hours at 37° C. and immediately used or refrigerated overnight for later use. Cells (3000 to 6000 cells) were plated in growth medi in fibronectin-coated 96-well plates and incubated for a minimum of a few hours to overnight. Cells were incubated with a 12-point concentration response in triplicate with Compound 1 ([…]) including DMSO and Media controls. A 3-fold serial dilution of Compound 1 starting from a concentration of 200 μM in 0.6% DMSO (diluted in Media) was performed. For most sensitive cell lines, a 3-fold serial dilution of Compound 1 starting from a concentration of 20 μM in 0.6% DMSO (diluted in media) was performed. A volume of 5 μL or 10 μL for each dilution was added to 100 μL or 200 μL cells, respectively (0.3% DMSO final) and incubated for live cell imaging.
(§3) Live Cell Imaging on IncuCyte Zoom: Following incubation of cells with Compound 1, diluted Caspase 3/7 reagent (Essen Biosciences Cat no. 4440) is added to each well. The Caspase-3/7 reagent couples the activated caspase-3/7 recognition motif (DEVD) to NucView™488, a DNA intercalating dye. The cleavage of substrate by activated caspase-3/7 results in the release of the DNA dye and green fluorescent staining of nuclear DNA. This allows imaging of cells undergoing caspase-3/7 mediated apoptosis over time. Caspase-3/7 activation was quantified using the IncuCyte™ ZOOM basic analyzer. Red-labeled cell lines were also imaged over time using the IncuCyte™ ZOOM basic analyzer, for determination of both cell doubling time and Compound 1 effect on cell viability. Experiments were performed at least two times in each cell line.
(§4) Next, a 4 parameter log-logistic model was used to determine relative EC50 at each time point by the ‘drm’ function from the R ‘drc’ package (Ritz C, Streibig J C. Bioassay Analysis using R. J. Statist. Software 2005; 12(5):1-22). Goodness of fit was measured by R squared (coefficient of determination or the amount of variation explained by the model fit) of ≥80%, and EC50 parameter was assessed by having a ratio of standard error to the parameter of ≤40%, and the presence of at least one concentration point above and below the reported EC50.
(§5) Twelve Red-labeled human AML cell lines, established as described above, were incubated with Compound 1 dose range (0 to 10 μM) and Red fluorescence or Object count was imaged over time, as described above. […]

ML-2 = conditions: Homo sapiens, Red-labeled ML-2, read-out: Inhibition of Cell Viability EC50
Experimental: as §1, §2, §3, §4, §5

SIG-M5 = conditions: Homo sapiens, read-out: Inhibition of Cell Viability EC50
Experimental: as §1, §2, §3, §4, §5

TF-1 = conditions: Homo sapiens, Red-labeled TF-1, read-out: Inhibition of Cell Viability EC50
Experimental: as §1, §2, §3, §4, §5

HL-60 = conditions: Homo sapiens, Red-labeled HL-60, read-out: Inhibition of Cell Viability EC50
Experimental: as §1, §2, §3, §4, §5

AML-193 = conditions: Homo sapiens, Red-labeled AML-193, read-out: Inhibition of Cell Viability EC50
Experimental: as §1, §2, §3, §4, §5

KG-1 = conditions: Homo sapiens, Red-labeled KG-1, read-out: Inhibition of Cell Viability EC50
Experimental: as §1, §2, §3, §4, §5

OCI-AML2 = conditions: Homo sapiens, read-out: Inhibition of Cell Viability EC50
Experimental: as §1, §2, §3, §4, §5

THP-1 = conditions: Homo sapiens; Red-labeled THP-1; 96 hr; read-out: Inhibition of Cell Viability EC50
Experimental: as §1, §2, §3, §4, §5

OCI-AML3 = conditions: Homo sapiens, read-out: Inhibition of Cell Viability EC50
Experimental: as §1, §2, §3, §4, §5

MOLM-13 = conditions: Homo sapiens, Red-labeled MOLM-13, read-out: Inhibition of Cell Viability EC50
Experimental: as §1, §2, §3, §4, §5

## O=C1CCC(N2Cc3cc(CNC(=O)C(F)(F)c4ccc(Cl)cc4)ccc3C2=O)C(=O)N1 (stereo not drawn) [Compound 1, 2-(4-chlorophenyl)-N-((2-(2,6-dioxopiperidin-3-yl)-1-oxoisoindolin-5-yl)methyl)-2,2-difluoroacetamide]
MV4-11; 48 hr
  EC50: 40 nM
MV4-11; 72 hr
  EC50: 27 nM
MV4-11; 96 hr
  EC50: 26 nM
ML-2; 72 hr
  EC50: 4 nM
ML-2; 96 hr
  EC50: 4 nM
SIG-M5; 72 hr
  EC50: 156 nM
SIG-M5; 96 hr
  EC50: 178 nM
TF-1; 48 hr
  EC50: 30 nM
TF-1; 72 hr
  EC50: 36 nM
TF-1; 96 hr
  EC50: 58 nM
HL-60; 48 hr
  EC50: 9 nM
HL-60; 72 hr
  EC50: 7 nM
HL-60; 96 hr
  EC50: 6 nM
AML-193; 24 hr
  EC50: 10 nM
AML-193; 48 hr
  EC50: 4 nM
AML-193; 72 hr
  EC50: 3 nM
AML-193; 96 hr
  EC50: 2 nM
KG-1; 48 hr
  EC50: 7 nM
KG-1; 72 hr
  EC50: 7 nM
KG-1; 96 hr
  EC50: 7 nM
OCI-AML2; 24 hr
  EC50: 387 nM
OCI-AML2; 48 hr
  EC50: 83 nM
OCI-AML2; 72 hr
  EC50: 42 nM
OCI-AML2; 96 hr
  EC50: 40 nM
THP-1
  EC50: 61 nM
OCI-AML3; OCI-AML-3, 72 hr
  EC50: 180 nM
OCI-AML3; OCI-AML-3, 96 hr
  EC50: 186 nM
MOLM-13; 48 hr
  EC50: 143 nM
MOLM-13; 72 hr
  EC50: 208 nM
MOLM-13; 96 hr
  EC50: 248 nM
